Test results: ChEMBL document CHEMBL6153137, “Design, Synthesis, and Biological Evaluation of Novel Orally Available Covalent CDK12/13 Dual Inhibitors for the Treatment of Tumors” (J Med Chem, 2025)
Activity calls are given as the source filed them. The rule behind the calls is not given here.

Experiments:
[1] = Cmax in female Sprague-Dawley rat at 7.5 mg/kg, po administered once daily via gavage for 28 days; assay type: ADME, organism-based; details: in vivo, time 28 day
[2] = Half life in female Sprague-Dawley rat at 15 mg/kg, po administered via gavage and measured on day 1; assay type: ADME, organism-based; details: in vivo, time 1 day
[3] = Cmax in female Sprague-Dawley rat at 7.5 mg/kg, po administered via gavage and measured on day 1; assay type: ADME, organism-based; details: in vivo, time 1 day
[4] = Cmax in male Sprague-Dawley rat at 10 mg/kg, po administered once daily via gavage for 28 days; assay type: ADME, organism-based; details: in vivo, time 28 day
[5] = Clearance in Sprague-Dawley rat at 1 mg/kg, iv measured for 24 hrs by LC-MS/MS analysis; assay type: ADME, organism-based; details: in vivo
[6] = test system: MV4-11; assay: Antiproliferative activity against human MV4-11 cells assessed as reduction in cell viability incubated for 7 days by CellTiter-Glo reagent based luminescence analysis; assay type: functional; details: MV4-11, 168 h
[7] = AUC(0 to t) in female Sprague-Dawley rat at 7.5 mg/kg, po administered once daily via gavage for 28 days; assay type: ADME, organism-based; details: in vivo, 672 h, time 28 day
[8] = Half life in male Sprague-Dawley rat at 20 mg/kg, po administered once daily via gavage for 28 days; assay type: ADME, organism-based; details: in vivo, time 28 day
[9] = Toxicity against male Sprague-Dawley rat assessed as hypersalivation at 40 mg/kg, po administered once daily via gavage for 28 days; assay type: organism-based; details: in vivo, 672 h, time 28 day
[10] = Toxicity against female Sprague-Dawley rat assessed as effect on body weight at 7.5 to 15 mg/kg, po administered once daily via gavage for 28 days and measured twice a week; assay type: organism-based; details: in vivo, 672 h, dose 7.5-15 mg/kg, time 28 day
[11] = Cmax in male Sprague-Dawley rat at 40 mg/kg, po administered via gavage and measured on day 1; assay type: ADME, organism-based; details: in vivo, time 1 day
[12] = AUC (0 to infinity) in Sprague-Dawley rat at 50 mg/kg, po by LC-MS/MS analysis; assay type: ADME, organism-based; details: in vivo
[13] = Toxicity against Balb/c mouse xenografted with human SUM149PT cells assessed as body weight at 30 to 60 mg/kg, po administered once daily via gavage and measured every 3 days for 3 weeks; assay type: organism-based; details: in vivo, 504 h, dose 30-60 mg/kg
[14] = Toxicity against female Sprague-Dawley rat assessed as effect on red blood cells level at 7.5 to 30 mg/kg, po administered once daily via gavage for 28 days and measured on day 29; assay type: organism-based; details: in vivo, 696 h, dose 7.5-30 mg/kg, time 29 day
[15] = Oral bioavailability in Sprague-Dawley rat at 5 mg/kg measured for 24 hrs by LC-MS/MS analysis; assay type: ADME, organism-based; details: in vivo
[16] = Toxicity against male Sprague-Dawley rat assessed as effect on blood urea nitrogen level at 10 to 40 mg/kg, po administered once daily via gavage for 28 days and measured on day 29; assay type: organism-based; details: in vivo, 696 h, dose 10-40 mg/kg, time 29 day
[17] = molecular target: Cyclin-dependent kinase 2/cyclin E1 (Homo sapiens) (UniProt P24864+P24941); assay: Inhibition of human recombinant N-terminal GST-tagged CDK2/N-terminal GST-tagged Cyclin E1 expressed in HEP Sf9 cells using ATP as substrate at 2 uM measured after 60 mins by ADP-Glo reagent based luminescence analysis
[18] = Half life in female Sprague-Dawley rat at 15 mg/kg, po administered once daily via gavage for 28 days; assay type: ADME, organism-based; details: in vivo, time 28 day
[19] = Toxicity against female Sprague-Dawley rat assessed as increase in neutrophils content at 7.5 to 30 mg/kg, po administered once daily via gavage for 28 days and measured on day 29; assay type: organism-based; details: in vivo, 696 h, dose 7.5-30 mg/kg, time 29 day
[20] = molecular target: Cyclin-dependent kinase 13/Cyclin-K (Homo sapiens) (UniProt Q14004+O75909); assay: Inhibition of human recombinant N-terminal GST-tagged CDK13/N-terminal FLAG and C-terminal His-tagged Cyclin K expressed in HEP Sf9 cells using ATP as substrate at 2 uM measured after 60 mins by ADP-Glo reagent based luminescence assay
Cyclin-dependent kinase 13/Cyclin-K (Homo sapiens), sequence (O75909 whole entry, looked up): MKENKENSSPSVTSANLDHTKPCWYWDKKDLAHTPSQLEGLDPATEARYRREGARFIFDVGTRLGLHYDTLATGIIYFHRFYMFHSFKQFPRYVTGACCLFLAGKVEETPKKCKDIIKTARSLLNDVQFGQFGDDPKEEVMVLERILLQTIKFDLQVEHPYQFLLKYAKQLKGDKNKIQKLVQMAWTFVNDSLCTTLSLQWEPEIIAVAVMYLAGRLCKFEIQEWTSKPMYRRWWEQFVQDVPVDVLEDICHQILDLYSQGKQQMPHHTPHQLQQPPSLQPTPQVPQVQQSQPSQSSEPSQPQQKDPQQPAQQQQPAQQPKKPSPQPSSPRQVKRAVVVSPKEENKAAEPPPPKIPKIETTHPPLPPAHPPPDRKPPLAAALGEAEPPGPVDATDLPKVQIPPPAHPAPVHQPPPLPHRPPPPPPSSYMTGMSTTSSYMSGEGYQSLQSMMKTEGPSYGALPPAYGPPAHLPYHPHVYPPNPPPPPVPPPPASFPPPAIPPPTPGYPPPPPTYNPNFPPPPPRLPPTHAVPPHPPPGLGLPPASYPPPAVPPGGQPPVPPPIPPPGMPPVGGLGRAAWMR
Cyclin-dependent kinase 13/Cyclin-K (Homo sapiens), sequence (Q14004 whole entry, looked up): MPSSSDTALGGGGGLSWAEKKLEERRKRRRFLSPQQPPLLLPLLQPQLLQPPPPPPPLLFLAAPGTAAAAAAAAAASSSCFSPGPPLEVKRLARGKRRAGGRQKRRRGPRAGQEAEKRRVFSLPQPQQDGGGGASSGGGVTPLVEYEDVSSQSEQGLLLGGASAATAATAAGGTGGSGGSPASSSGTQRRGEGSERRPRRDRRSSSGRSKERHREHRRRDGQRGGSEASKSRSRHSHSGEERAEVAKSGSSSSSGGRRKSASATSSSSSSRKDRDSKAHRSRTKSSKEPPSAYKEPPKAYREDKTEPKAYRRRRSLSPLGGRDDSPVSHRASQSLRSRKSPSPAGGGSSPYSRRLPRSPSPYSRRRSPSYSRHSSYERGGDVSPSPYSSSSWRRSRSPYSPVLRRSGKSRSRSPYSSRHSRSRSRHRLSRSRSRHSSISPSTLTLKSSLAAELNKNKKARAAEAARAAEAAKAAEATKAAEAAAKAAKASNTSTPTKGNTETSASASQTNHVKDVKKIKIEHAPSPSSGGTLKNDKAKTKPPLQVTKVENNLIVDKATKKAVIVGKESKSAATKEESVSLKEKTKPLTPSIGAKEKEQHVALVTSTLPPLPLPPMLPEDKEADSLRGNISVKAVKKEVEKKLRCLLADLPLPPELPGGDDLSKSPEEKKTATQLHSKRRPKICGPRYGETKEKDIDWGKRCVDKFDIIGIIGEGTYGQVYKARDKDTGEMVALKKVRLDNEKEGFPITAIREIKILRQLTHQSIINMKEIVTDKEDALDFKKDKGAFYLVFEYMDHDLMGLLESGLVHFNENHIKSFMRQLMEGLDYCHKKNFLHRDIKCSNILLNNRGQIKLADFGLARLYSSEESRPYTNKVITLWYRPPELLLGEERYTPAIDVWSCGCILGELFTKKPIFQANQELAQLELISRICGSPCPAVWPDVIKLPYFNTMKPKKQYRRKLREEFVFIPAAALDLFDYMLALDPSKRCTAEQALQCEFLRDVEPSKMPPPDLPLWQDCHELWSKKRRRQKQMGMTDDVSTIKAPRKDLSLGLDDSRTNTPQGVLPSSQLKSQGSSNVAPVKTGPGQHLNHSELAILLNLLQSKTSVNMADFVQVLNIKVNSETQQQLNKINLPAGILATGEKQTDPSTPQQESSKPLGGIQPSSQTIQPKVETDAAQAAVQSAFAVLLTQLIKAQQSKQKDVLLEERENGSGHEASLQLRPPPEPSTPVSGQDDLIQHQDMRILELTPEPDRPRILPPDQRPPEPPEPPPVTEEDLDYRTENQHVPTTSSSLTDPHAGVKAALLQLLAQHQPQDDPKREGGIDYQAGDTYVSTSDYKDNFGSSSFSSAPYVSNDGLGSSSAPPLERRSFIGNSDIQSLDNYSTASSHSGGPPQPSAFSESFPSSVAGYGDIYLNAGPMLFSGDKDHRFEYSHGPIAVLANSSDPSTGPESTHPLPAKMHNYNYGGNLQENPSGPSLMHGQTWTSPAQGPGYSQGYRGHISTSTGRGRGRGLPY

[21] = Half life in male Sprague-Dawley rat at 40 mg/kg, po administered via gavage and measured on day 1; assay type: ADME, organism-based; details: in vivo, time 1 day
[22] = Toxicity against male Sprague-Dawley rat assessed as effect on creatinine level in blood at 10 to 40 mg/kg, po administered once daily via gavage for 28 days and measured on day 29; assay type: organism-based; details: in vivo, 696 h, dose 10-40 mg/kg, time 29 day
[23] = test system: MDA-MB-231; assay: Antiproliferative activity against human MDA-MB-231 cells assessed as reduction in cell viability incubated for 7 days by CellTiter-Glo reagent based luminescence analysis; assay type: functional; details: MDA-MB-231, 168 h
[24] = Protein binding in human plasma assessed as free fraction at 400 uM incubated for 4 hrs by equilibrium dialysis method based LC-MS/MS analysis; assay type: ADME, cell-free
[25] = molecular target: CDK9/cyclin T1 (Homo sapiens) (UniProt O60563+P50750); assay: Inhibition of human recombinant N-terminal GST-tagged CDK9/N-terminal GST-tagged and C-terminal 8X His-tagged Cyclin T1 expressed in HEP Sf9 cells using ATP as substrate at 2 uM measured after 60 mins by ADP-Glo reagent based luminescence assay
[26] = molecular target: Cytochrome P450 2C19 (Homo sapiens, UniProt P33261); assay: Inhibition of CYP2C19 in human liver microsomes assessed as inhibition of S-mephenytoin-4-hydroxylation incubated for 10 mins in presence of NADPH by LC-MS/MS analysis; assay type: ADME, Microsome
Cytochrome P450 2C19, sequence (P33261 whole entry): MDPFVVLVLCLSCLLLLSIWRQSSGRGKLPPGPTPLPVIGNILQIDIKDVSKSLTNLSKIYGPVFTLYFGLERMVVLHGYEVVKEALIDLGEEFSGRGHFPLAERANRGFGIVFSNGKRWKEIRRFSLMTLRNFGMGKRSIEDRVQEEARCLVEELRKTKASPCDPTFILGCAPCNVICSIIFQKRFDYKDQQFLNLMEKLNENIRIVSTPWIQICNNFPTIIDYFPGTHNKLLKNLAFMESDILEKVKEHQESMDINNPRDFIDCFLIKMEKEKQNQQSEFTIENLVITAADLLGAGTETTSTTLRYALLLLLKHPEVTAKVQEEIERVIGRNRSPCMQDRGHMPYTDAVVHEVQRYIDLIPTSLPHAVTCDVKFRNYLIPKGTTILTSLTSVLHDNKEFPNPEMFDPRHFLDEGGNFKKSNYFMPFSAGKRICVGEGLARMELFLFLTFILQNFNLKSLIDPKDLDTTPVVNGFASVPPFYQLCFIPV

[27] = AUC(0 to t) in female Sprague-Dawley rat at 15 mg/kg, po administered once daily via gavage for 28 days; assay type: ADME, organism-based; details: in vivo, 672 h, time 28 day
[28] = Toxicity against male Sprague-Dawley rat assessed as soft feces at 40 mg/kg, po administered once daily via gavage for 28 days; assay type: organism-based; details: in vivo, 672 h, time 28 day
[29] = AUC(0 to t) in male Sprague-Dawley rat at 10 mg/kg, po administered via gavage and measured on day 1; assay type: ADME, organism-based; details: in vivo, 24 h, time 1 day
[30] = AUC(0 to t) in male Sprague-Dawley rat at 20 mg/kg, po administered via gavage and measured on day 1; assay type: ADME, organism-based; details: in vivo, 24 h, time 1 day
[31] = test system: OCI-AML-3; assay: Antiproliferative activity against human OCI-AML-3 cells assessed as reduction in cell viability incubated for 7 days by CellTiter-Glo reagent based luminescence analysis; assay type: functional; details: OCI-AML-3, 168 h
[32] = test system: NAMALVA; assay: Antiproliferative activity against human NAMALWA cells assessed as reduction in cell viability incubated for 7 days by CellTiter-Glo reagent based luminescence analysis; assay type: functional; details: 168 h
[33] = Toxicity against male Sprague-Dawley rat assessed as decrease in thymus volume at 10 to 40 mg/kg, po administered once daily via gavage for 28 days and measured on day 29; assay type: organism-based; details: in vivo, 696 h, dose 10-40 mg/kg, time 29 day
[34] = molecular target: CDK12/Cyclin K (Homo sapiens) (UniProt O75909+Q9NYV4); assay: Irreversible covalent binding affinity to CDK12/CyclinK (unknown origin) at Cys1039 residue assessed as 1:1 complex formation at 5 uM measured after 3 hrs by peptide mapping based mass spectrometric analysis; assay type: protein-complex assay
CDK12/Cyclin K (Homo sapiens), sequence (O75909 whole entry, looked up): as the sequence (O75909 whole entry, looked up) above
CDK12/Cyclin K (Homo sapiens), sequence (Q9NYV4 whole entry, looked up): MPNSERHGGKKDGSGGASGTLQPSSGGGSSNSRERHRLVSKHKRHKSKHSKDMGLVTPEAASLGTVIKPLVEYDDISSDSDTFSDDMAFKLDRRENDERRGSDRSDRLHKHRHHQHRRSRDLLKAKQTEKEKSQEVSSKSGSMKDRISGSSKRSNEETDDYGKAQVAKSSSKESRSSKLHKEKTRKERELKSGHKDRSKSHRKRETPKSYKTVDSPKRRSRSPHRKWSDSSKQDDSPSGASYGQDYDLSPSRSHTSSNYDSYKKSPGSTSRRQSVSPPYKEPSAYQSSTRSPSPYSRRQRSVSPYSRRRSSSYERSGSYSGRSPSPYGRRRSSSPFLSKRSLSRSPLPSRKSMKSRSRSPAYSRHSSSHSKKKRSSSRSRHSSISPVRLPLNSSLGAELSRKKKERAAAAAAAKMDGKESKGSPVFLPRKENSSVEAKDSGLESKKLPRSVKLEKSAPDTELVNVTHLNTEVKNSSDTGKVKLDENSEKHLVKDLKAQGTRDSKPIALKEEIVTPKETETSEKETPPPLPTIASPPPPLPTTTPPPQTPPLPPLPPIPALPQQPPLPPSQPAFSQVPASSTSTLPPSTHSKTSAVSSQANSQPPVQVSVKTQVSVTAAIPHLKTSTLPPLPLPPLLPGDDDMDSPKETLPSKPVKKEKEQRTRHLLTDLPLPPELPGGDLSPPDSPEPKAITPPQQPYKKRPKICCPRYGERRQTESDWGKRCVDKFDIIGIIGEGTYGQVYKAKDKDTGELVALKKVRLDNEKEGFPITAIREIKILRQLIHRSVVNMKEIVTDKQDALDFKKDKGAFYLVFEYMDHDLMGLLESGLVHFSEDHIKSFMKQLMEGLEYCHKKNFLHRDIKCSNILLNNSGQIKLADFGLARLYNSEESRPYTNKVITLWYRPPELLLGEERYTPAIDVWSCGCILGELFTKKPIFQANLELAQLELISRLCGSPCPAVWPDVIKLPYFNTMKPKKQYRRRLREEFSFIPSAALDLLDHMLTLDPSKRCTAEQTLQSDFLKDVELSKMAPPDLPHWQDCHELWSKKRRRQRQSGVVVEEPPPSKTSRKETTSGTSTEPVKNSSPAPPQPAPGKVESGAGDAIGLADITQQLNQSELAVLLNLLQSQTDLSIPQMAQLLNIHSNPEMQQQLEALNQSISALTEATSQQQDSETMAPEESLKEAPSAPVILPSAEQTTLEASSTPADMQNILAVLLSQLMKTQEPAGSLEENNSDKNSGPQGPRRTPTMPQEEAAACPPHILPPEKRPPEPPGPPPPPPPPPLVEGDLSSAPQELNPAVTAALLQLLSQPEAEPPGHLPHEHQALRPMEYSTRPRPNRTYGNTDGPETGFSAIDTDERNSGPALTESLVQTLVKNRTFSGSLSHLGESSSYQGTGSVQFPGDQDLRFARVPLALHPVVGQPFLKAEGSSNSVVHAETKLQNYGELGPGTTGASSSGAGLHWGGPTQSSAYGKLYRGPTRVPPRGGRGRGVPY

[35] = test system: Mus musculus; assay: In vivo inhibition of CDK12/13 in Balb/c mouse xenografted with human SUM149PT cells assessed as reduction in phosphorylation of Ser2 on RNA Pol II at 15 to 30 mg/kg, po administered once daily via gavage and measured at 4 hrs post-last drug dosage by western blot analysis; assay type: functional, organism-based; details: dose 15-30 mg/kg

Cmax [1]: 0.8 µg/mL | half-life [2]: 3.7 h | Cmax [3]: 0.87 µg/mL | Cmax [4]: 0.576 µg/mL | clearance [5]: 3.74 L/h/kg | IC50 [6]: 0.084 µM | AUCt [7]: 1.76 µg·h/mL | half-life [8]: 4.2 h | Cmax [11]: 1.66 µg/mL | AUC(0-inf) [12]: 6.69 µg·h/mL | bioavailability [15]: 35.7% | inhibition [17]: 63% | half-life [18]: 2.3 h | inhibition [20]: 83% | half-life [21]: 6.2 h | IC50 [23]: 0.058 µM | fraction unbound at 4 h, 400 µM [24]: 0.127 | inhibition [25]: 75% | IC50 [26]: > 50 µM | AUCt [27]: 3.22 µg·h/mL | AUCt [29]: 0.978 µg·h/mL | AUCt [30]: 2.55 µg·h/mL | IC50 [31]: 0.137 µM | Activity [34]: Active
SMILES: C=CC(=O)N1CCc2c(ncnc2N2CC[C@@H](Nc3ncc(Cl)c(OC)n3)C2)C1
Activity [9]: Toxic | Activity [10]: Non-toxic | Activity [13]: Non-toxic | Activity [14]: Non-toxic | Activity [16]: Non-toxic | Activity [19]: Toxic | Activity [22]: Non-toxic | Activity [28]: Toxic | IC50 [32]: 0.098 µM | Activity [33]: Toxic | inhibition [35]: Active
